In test [1] the target is T1, human mTOR (Homo sapiens, UniProt P42345).
T1 construct: the portion corresponding to 1362-2549aa at the C terminus of human mTOR; made in house
Briefly: mTOR Kinase Activity Inhibition Test. In kind it is biochemical. Conditions: His-tagged mTOR (1362C), biotinylated peptide substrate, ATP, 3 hours at room temperature, fluorescence resonance energy transfer 665 nm/620 nm; read-out: IC50 value of mTOR enzyme inhibitory activity. The protocol:
The kinase activity of mTOR was measured in the presence or absence of a test compound. A substrate peptide is phosphorylated by mTOR kinase activity. A complex of streptavidin-XL665 and anti-phosphorylated S6K (Thr389) antibody/anti-mouse IgG-cryptate binds to this phosphorylated peptide. At this moment, fluorescence resonance energy transfer takes place from antibody/anti-mouse IgG-cryptate exposed to light excitation to XL665, which results in emission of fluorescence at 665 nm. The mTOR kinase activity is detected using this principle.
(1) Sample Preparation and Enzymatic Reaction
An HEK293 cell line that constitutively expresses a His tag fused human mTOR has been established. His tag was introduced into the N terminus of the portion corresponding to 1362-2549aa at the C terminus of human mTOR. Cell lysate was prepared from this HEK293 cell line constitutively expressing His-tagged mTOR (1362C), and His-tagged mTOR (1362C) was purified using the His tag affinity according to a conventional method.
Next, an mTOR enzyme solution was prepared, which contains the aforementioned His-tagged mTOR (1362C) enzyme, 8 μg/mL of biotinylated peptide (Biotin-Ahx-[…]-amide (Sigma)), as well as 50 mM HEPES (pH 7.5), 20 mM MnCl2, 1 mg/ml BSA, an appropriate amount of protease inhibitor cocktail (Complete EDTA free, Roche), 100 ng/ml Calyculin A, 4 μg/ml Cantharidin and 10 mM DTT as other components.
The test compound was dissolved in DMSO, and serial dilutions were prepared with 20 μM ATP solution (50 mM HEPES (pH 7.5), 20 μM ATP) to achieve concentrations necessary for the assay. 5 μL of this compound solution was applied to each well of a 384 well small volume white Greiner plate.
5 μL of mTOR enzyme solution was added to the aforementioned well containing the test compound. After mixing, the mixture was incubated at room temperature for 3 hours to carry out the enzymatic reaction.
The same operation was performed with a solution of DMSO in 20 μM ATP solution as a positive control and with a solution of DMSO in 50 mM HEPES (pH 7.5) as a negative control.
(2) Detection of Enzymatic Reaction
After the enzymatic reaction, 5 μl each of an europium solution (a solution of anti-mouse IgG-cryptate (SCETI Medical Labo K.K.) and anti-phosphorylated S6K (Thr389) antibody (Cell Signaling Technology Inc.) in 50 mM HEPES (pH 7.5), 100 mM EDTA and 1.5 mg/ml BSA) and an XL665 solution (a solution of streptavidin-XL665 (SCETI Medical Labo K.K.) in 50 mM HEPES (pH 7.5), 100 mM EDTA, 0.8 M KF and 1.5 mg/ml BSA) were added in this order and then mixed. The mixture was incubated at 4° C. overnight. On the following day, the mixture was returned to room temperature and irradiated with excitation light at 337 nm. Fluorescence at 620 nm and fluorescence at 665 nm were measured with RUBYstar (BMG).
The mTOR inhibitory activity (%) was calculated using the ratio calculated from the measured values as an index of enzyme activity. Here, the ratio was calculated from the following formula (I). Ratio=10000×665 nm fluorescence value/620 nm fluorescence value (1)
The mTOR enzyme inhibitory activity (%) was calculated from the following formula (2). mTOR enzyme inhibitory activity (%)=100×[(P−S)/(P−N)] (2)
P: Ratio in well of positive control
N: Ratio in well of negative control
S: Ratio in well containing test compound
Further, an optimal curve was calculated based upon each concentration of the test compound prepared in serial dilutions and the mTOR enzyme inhibitory activity (%) at that concentration. The concentration at which 50% inhibition occurred was calculated as the IC50 value of mTOR enzyme inhibitory activity.

For test [2], the system named is WM-266-4 cells. As to the kind of experiment: Cell Proliferation Inhibitory Test. In kind it is cell-based. The conditions noted are these: Homo sapiens, 72 h, cultured three days with test compound, MTT, read-out: 50% cell proliferation inhibitory activity (GI50 value). The protocol:
WM-266-4 cells (ATCC, USA) were seeded in a 96-well plate and cultured overnight. Then, serial dilutions of the sample containing the test compound were prepared, added to each well and cultured another three days. Thereafter, the cell amount in each well was measured by MTT (MOSMANN, T., Rapid colorimetric assay for cellular growth and survival: application to proliferation and cytotoxicity assays. J. Immunol. Methods, 65, 55-63 (1983)). The 50% cell proliferation inhibitory activity (GI50 value) was calculated from the following formula (3). 100×[(T−T0)/(C−T0)]=50 (3)
Here, T represents values from the test compound added wells, C represents the value from the well to which the test compound was not added for three days, and To represents an initial measured value at the time of addition of the test compound.

SMILES strings stand for the structures.

In patent US8436012B2, “Imidazopyridin-2-one derivatives” (Daiichi Sankyo Company, Limited, priority 2008, dated 2013) one finds IC50 and GI50 data, which are given here for 20 compounds.

What is called IC50 is the concentration needed to halve the response being measured.

T1 sequence (P42345 1362-2549): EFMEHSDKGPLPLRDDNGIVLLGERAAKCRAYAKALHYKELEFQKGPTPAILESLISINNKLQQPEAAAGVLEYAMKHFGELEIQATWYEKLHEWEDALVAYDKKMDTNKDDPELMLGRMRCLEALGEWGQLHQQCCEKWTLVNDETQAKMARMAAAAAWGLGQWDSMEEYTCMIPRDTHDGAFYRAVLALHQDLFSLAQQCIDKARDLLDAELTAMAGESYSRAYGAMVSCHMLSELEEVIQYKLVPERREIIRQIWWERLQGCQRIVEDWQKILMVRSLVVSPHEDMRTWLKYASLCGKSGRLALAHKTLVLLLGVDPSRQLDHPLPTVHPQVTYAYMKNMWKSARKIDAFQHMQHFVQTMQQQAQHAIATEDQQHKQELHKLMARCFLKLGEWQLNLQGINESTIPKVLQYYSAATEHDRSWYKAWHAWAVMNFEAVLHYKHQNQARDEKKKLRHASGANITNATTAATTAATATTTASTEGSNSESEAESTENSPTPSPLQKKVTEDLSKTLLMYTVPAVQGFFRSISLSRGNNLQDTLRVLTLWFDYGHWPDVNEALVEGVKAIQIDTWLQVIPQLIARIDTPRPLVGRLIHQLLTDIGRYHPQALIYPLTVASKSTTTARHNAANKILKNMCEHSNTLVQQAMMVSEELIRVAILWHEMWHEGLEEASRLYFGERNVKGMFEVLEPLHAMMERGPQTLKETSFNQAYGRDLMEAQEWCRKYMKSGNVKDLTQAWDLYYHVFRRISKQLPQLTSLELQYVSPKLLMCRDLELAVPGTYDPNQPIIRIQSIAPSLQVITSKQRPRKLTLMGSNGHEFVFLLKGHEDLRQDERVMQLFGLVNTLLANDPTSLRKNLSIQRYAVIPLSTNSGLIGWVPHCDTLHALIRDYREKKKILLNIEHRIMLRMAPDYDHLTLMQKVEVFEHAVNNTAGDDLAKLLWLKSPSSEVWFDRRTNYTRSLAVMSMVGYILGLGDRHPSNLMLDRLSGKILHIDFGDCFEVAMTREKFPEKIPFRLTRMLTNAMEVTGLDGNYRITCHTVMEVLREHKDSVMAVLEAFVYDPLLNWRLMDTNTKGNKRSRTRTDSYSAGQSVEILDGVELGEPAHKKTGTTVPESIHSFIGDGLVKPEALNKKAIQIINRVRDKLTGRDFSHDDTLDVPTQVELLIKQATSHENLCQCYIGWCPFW

As to `O=c1[nH]c2ncc(-c3cc4cc[nH]c4nc3Cl)cc2n1CC1CCOCC1` [Example 78, 6-(6-Chloro-1H-pyrrolo[2,3-b]pyridin-5-yl)-1-(tetrahydro-2H-pyran-4-ylmethyl)-1,3-dihydro-2H-imidazo[4,5-b]pyridin-2-one], in test [1], the IC50 was below 0.05 µM. Moreover, in test [2], the GI50 is below 3 µM. On to `O=c1[nH]c2ncc(-c3cc(F)c4[nH]ccc4c3)cc2n1CCN1CCOCC1` [Example 33, 6-(7-Fluoro-1H-indol-5-yl)-1-(2-morpholin-4-ylethyl)-1,3-dihydro-2H-imidazo[4,5-b]pyridin-2-one], for which the IC50 in test [1] was below 0.05 µM. In test [2], the GI50 was below 3 µM. The matching figures for `CO[C@H]1CCO[C@@H](Cn2c(=O)[nH]c3ncc(-c4cnc5[nH]ccc5c4C)cc32)C1` [Example 139, 2,6-Anhydro-1,3,5-trideoxy-4-O-methyl-1-[6-(4-methyl-1H-pyrrolo[2,3-b]pyridin-5-yl)-2-oxo-2,3-dihydro-1H-imidazo[4,5-b]pyridin-1-yl]-L-threo-hexitol]: below 0.05 µM and below 3 µM. In the same order, the values of `Cc1c[nH]c2ncc(-c3cnc4[nH]c(=O)n(CC5CCOCC5)c4c3)cc12` [Example 37, 6-(3-Methyl-1H-pyrrolo[2,3-b]pyridin-5-yl)-1-(tetrahydro-2H-pyran-4ylmethyl)-1,3-dihydro-2H-imidazo[4,5-b]pyridin-2-one] are below 0.05 µM and below 3 µM. Consider `CO[C@H]1CCO[C@@H](Cn2c(=O)[nH]c3ncc(-c4cnc5[nH]cc(Cl)c5c4C)cc32)C1` [Example 152, 2,6-Anhydro-1-[6-(3-chloro-4-methyl-1H-pyrrolo[2,3-b]pyridin-5-yl)-2-oxo-2,3-dihydro-1H-imidazo[4,5-b]pyridin-1-yl]-1,3,5-trideoxy-4-O-methyl-L-threo-hexitol], for which the IC50 in test [1] was below 0.05 µM. In addition, the GI50 in test [2] is below 3 µM. On to `O=c1[nH]c2ncc(-c3cnc4[nH]ccc4c3)cc2n1CCC1CCOCC1` [Example 20, 6-(1H-Pyrrolo[2,3-b]pyridin-5-yl)-1-[2-(tetrahydro-2H-pyran-4-yl)ethyl]-1,3-dihydro-2H-imidazo[4,5-b]pyridin-2-one], for which the 50% inhibitory concentration (IC50) in test [1] was below 0.05 µM. Moreover, the GI50 in test [2] was below 3 µM. The matching figures for `Cc1c(-c2cnc3[nH]c(=O)n(CC4CCOCC4)c3c2)cnc2[nH]ccc12` [Example 36, 6-(4-Methyl-1H-pyrrolo[2,3-b]pyridin-5-yl)-1-(tetrahydro-2H-pyran-4-ylmethyl)-1,3-dihydro-2H-imidazo[4,5-b]pyridin-2-one]: below 0.05 µM and below 3 µM.

In the case of `O=c1[nH]c2ncc(-c3cnc4cc[nH]c4c3)cc2n1CC1CCOCC1` [Example 88, 6-(1H-Pyrrolo[3,2-b]pyridin-6-yl)-1-(tetrahydro-2H-pyran-4-ylmethyl)-1,3-dihydro-2H-imidazo[4,5-b]pyridin-2-one], in test [1], the IC50 lay in the range of 0.1 to 5 µM. In test [2], the GI50 is below 3 µM. The matching figures for `Cc1c(-c2cnc3[nH]c(=O)n(C[C@H]4CC[C@@H](O)CO4)c3c2)cnc2[nH]ccc12` (racemic) [Example 141, 2,6-Anhydro-1,3,4-trideoxy-1-[6-(4-methyl-1H-pyrrolo[2,3-b]pyridin-5-yl)-2-oxo-2,3-dihydro-1H-imidazo[4,5-b]pyridin-1-yl]-DL-threo-hexitol]: below 0.05 µM and below 3 µM.

As for `CO[C@H]1CC[C@@H](Cn2c(=O)[nH]c3ncc(-c4cnc5[nH]ccc5c4)cc32)CC1` [Example 99, 1-[(cis-4-Methoxycyclohexyl)methyl]-6-(1H-pyrrolo[2,3-b]pyridin-5-yl)-1,3-dihydro-2H-imidazo[4,5-b]pyridin-2-one], the concentration for half-maximal inhibition (IC50) in test [1] is below 0.05 µM. Further, in test [2], the GI50 was below 3 µM.

Consider `Nc1n[nH]c2ccc(-c3cnc4[nH]c(=O)n(CC5CCOCC5)c4c3)cc12` [Example 72, 6-(3-Amino-1H-indazol-5-yl)-1-(tetrahydro-2H-pyran-4-ylmethyl)-1,3-dihydro-2H-imidazo[4,5-b]pyridin-2-one], for which, in test [1], the concentration for half-maximal inhibition (IC50) is below 0.05 µM. In addition, the GI50 in test [2] fell in the range of 3 to 25 µM. Consider `O=c1[nH]c2ncc(-c3cc4cc[nH]c4nn3)cc2n1CC1CCOCC1` [Example 76, 6-(7H-Pyrrolo[2,3-c]pyridazin-3-yl)-1-(tetrahydro-2H-pyran-4-ylmethyl)-1,3-dihydro-2H-imidazo[4,5-b]pyridin-2-one], for which the IC50 in test [1] is below 0.05 µM. Further, in test [2], the GI50 lay within 3 to 25 µM. Turning to `O=c1[nH]c2ncc(-c3cncc4ccccc34)cc2n1CC1CCOCC1` [Example 11, 6-Isoquinolin-4-yl-1-(tetrahydro-2H-pyran-4-ylmethyl)-1,3-dihydro-2H-imidazo[4,5-b]pyridin-2-one], the IC50 in test [1] was 0.1 to 5 µM. Regarding `O=C(O)c1cc2cc(-c3cnc4[nH]c(=O)n(CC5CCOCC5)c4c3)ccc2[nH]1` [Example 80, 5-[2-Oxo-1-(tetrahydro-2H-pyran-4-ylmethyl)-2,3-dihydro-1H-imidazo[4,5-b]pyridin-6-yl]-1H-indole-2-carboxylic acid], the IC50 in test [1] lay in the range of 0.1 to 5 µM. Consider `O=c1[nH]c2ncc(-c3cnc4[nH]cnc4c3)cc2n1CC1CCOCC1` [Example 22, 1-(Tetrahydro-2H-pyran-4-ylmethyl)-1,3-dihydro-2H,3′H-6,6′-biimidazo[4,5-b]pyridin-2-one], for which, in test [1], the half-inhibitory concentration (IC50) is below 0.05 µM. Same read-out and setting: to `O=c1[nH]c2ncc(-c3cccc4ncccc34)cc2n1CC1CCOCC1` [Example 13, 6-Quinolin-5-yl-1-(tetrahydro-2H-pyran-4-ylmethyl)-1,3-dihydro-2H-imidazo[4,5-b]pyridin-2-one] belongs 0.1 to 5 µM. Same read-out and setting: as for `O=C1Cc2cc(-c3cnc4[nH]c(=O)n(CC5CCOCC5)c4c3)cnc2N1` [Example 30, 6-(2-Oxo-2,3-dihydro-1H-pyrrolo[2,3-b]pyridin-5-yl)-1-(tetrahydro-2H-pyran-4-ylmethyl)-1,3-dihydro-2H-imidazo[4,5-b]pyridin-2-one], the figure is 0.1 to 5 µM; as for `O=C1CCOCC1Cn1c(=O)[nH]c2ncc(-c3cnc4[nH]ccc4c3)cc21` (centres unmarked) [Example 106, 1-[(4-Oxotetrahydro-2H-pyran-3-yl)methyl]-6-(1H-pyrrolo[2,3-b]pyridin-5-yl)-1,3-dihydro-2H-imidazo[4,5-b]pyridin-2-one], below 0.05 µM; as for `O=c1[nH]c2ncc(-c3cnc4[nH]ccc4c3)cc2n1C[C@H]1COC[C@H](O)C1` (racemic) [Example 66, 1-{[trans-5-Hydroxytetrahydro-2H-pyran-3-yl]methyl}-6-(1H-pyrrolo[2,3-b]pyridin-5-yl)-1,3-dihydro-2H-imidazo[4,5-b]pyridin-2-one], below 0.05 µM. Same read-out and setting: to `O=c1[nH]c2ncc(-c3ccnc4ccccc34)cc2n1CC1CCOCC1` [Example 12, 6-Quinolin-4-yl-1-(tetrahydro-2H-pyran-4-ylmethyl)-1,3-dihydro-2H-imidazo[4,5-b]pyridin-2-one] belongs 0.1 to 5 µM.
